Test results reported in PMC9436075, “A structural basis for the functional differences between the cytosolic and plastid phosphoglucose isomerase isozymes” (PLoS ONE, 2022).

How the values were obtained:
TaPGIc = target: T1, TaPGIc (Triticum aestivum, UniProt Q1PBI3); test: PGI activity inhibition, dose-response; format: biochemical; conditions: read-out: IC50E4P
T1 construct: gene GPI; cytosolic PGI, CTD 510-567, HLHM 444-466; homodimer
T1 sequence (Q1PBI3 1-567): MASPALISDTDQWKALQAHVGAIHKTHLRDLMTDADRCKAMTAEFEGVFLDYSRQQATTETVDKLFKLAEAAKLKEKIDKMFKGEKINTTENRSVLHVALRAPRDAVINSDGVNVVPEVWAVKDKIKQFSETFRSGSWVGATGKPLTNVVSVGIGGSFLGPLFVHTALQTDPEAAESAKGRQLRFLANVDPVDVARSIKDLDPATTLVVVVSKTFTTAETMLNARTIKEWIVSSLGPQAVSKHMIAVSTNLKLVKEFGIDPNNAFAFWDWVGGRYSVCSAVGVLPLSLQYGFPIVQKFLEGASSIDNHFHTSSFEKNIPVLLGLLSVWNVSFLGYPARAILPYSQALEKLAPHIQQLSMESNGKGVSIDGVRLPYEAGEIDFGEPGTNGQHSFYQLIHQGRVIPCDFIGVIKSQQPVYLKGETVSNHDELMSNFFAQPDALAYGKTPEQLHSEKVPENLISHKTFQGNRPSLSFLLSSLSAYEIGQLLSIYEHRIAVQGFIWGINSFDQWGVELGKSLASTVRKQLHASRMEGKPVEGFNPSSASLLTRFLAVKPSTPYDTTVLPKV

TaPGIp = target: T2, TaPGIp (Triticum aestivum, UniProt A0A3B6LNA8); test: PGI activity inhibition, dose-response; format: biochemical; conditions: read-out: IC50E4P
T2 construct: gene LOC123112261; plastid PGI, CTD 467-557, transit peptide probably removed; homodimer
T2 sequence (A0A3B6LNA8 64-620): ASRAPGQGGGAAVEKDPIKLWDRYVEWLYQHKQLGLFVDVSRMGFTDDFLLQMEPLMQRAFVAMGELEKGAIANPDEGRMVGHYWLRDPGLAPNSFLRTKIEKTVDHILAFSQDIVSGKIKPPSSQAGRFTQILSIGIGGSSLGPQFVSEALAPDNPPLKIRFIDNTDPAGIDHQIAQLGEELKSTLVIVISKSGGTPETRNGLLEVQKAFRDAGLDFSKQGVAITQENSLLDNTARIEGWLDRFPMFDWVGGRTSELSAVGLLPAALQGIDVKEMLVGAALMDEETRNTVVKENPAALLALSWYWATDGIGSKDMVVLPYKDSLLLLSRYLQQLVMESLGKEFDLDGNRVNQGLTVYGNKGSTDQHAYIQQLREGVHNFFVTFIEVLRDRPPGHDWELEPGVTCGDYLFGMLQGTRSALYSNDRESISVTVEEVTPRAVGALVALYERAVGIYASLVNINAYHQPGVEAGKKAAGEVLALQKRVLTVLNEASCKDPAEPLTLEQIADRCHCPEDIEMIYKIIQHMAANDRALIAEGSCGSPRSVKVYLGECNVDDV

Q: O=C[C@H](O)[C@H](O)COP(=O)(O)O [E4P, erythrose 4-phosphate] was tested. Which IC50 (TaPGIc) did it give?
A: The IC50 was 130 µM.

Q: What about the IC50 (TaPGIp) of the same compound?
A: Its IC50 is 760 µM.
